Data set [1] has as its system HeLaS3 cells. The data set can be described thus: ROS generation, HeLaS3. It is filed as cell-based, human. The following applies: HeLaS3, 24 h treatment.
Data set [2] deals with KB-vin cells. The data set can be described thus: ROS generation, KB-vin. To be noted: 24 h treatment. The data set is classed as cell-based, human.
Data set [3] relates to HeLaS3 cells. The data set can be described thus: Mitochondrial membrane potential assay, HeLaS3. The following applies: HeLaS3, 24 h treatment. The data set is classed as cell-based, human.
Data set [4] relates to KB-vin cells. The data set is described as follows: Mitochondrial membrane potential assay, KB-vin. The data set is classed as cell-based, human. The following applies: 24 h treatment.
Data set [5] deals with T1, NQO1 (Homo sapiens, UniProt P15559). The data set can be described thus: NQO1 activity assay kit in treated HeLaS3 cells. The following applies: HeLaS3, 24 h, serial concentrations.
T1 sequence (P15559 whole entry): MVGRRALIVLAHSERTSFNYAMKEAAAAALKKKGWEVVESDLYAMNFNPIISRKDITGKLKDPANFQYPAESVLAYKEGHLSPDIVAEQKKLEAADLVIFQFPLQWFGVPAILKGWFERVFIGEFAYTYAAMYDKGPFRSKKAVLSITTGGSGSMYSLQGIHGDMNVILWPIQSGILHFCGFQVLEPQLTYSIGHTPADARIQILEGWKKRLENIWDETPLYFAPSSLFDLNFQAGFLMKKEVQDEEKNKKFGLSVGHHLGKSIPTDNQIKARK
In data set [6] the target is T1, NQO1. The data set can be described thus: NQO1 activity assay kit in treated KB-vin cells. The following applies: 24 h, serial concentrations.
The test system of data set [7] is HeLaS3 cells. The data set is described as follows: SRB antiproliferation assay, HeLaS3. The following applies: read-out: IC50 HeLaS3, 72 h, mean ± SD of three experiments. For orientation: In SRB staining, fixed cells bind dye roughly in proportion to their protein.
For data set [8], the target named is T1, NQO1. The data set can be described thus: NQO1 inhibitory kinetic assay. It is filed as biochemical.
The test system of data set [9] is normal endometrial epithelial cells (EECs). The data set is described as follows: MTT proliferation assay, normal endometrial epithelial cells. The data set is classed as cell-based. To be noted: increasing doses, 72 h.
Data set [10] relates to HeLaS3 cells. The data set is described as follows: MTT proliferation assay, HeLaS3. It is filed as cell-based, human. The following applies: increasing doses, 72 h.
Data set [11] deals with HeLaS3 cells. The data set can be described thus: Western blot of apoptotic proteins. The data set is classed as cell-based, human. To be noted: HeLaS3, 72 h. Background: In western blotting, separated proteins are transferred to a membrane and probed.
For data set [12], the system named is HeLaS3 cells. The data set can be described thus: NQO1-dependent cytotoxicity. To be noted: HeLaS3, SRB, 72 h.
The subject of data set [13] is KB-vin cells. The data set is described as follows: NQO1-dependent cytotoxicity. To be noted: SRB, 72 h.

Consider six compounds from article PMC6421848 (European journal of medicinal chemistry, 2018).

Consider `CN1CCN(c2ccc(NC3=CC(=O)c4ncccc4C3=O)cc2)CC1` [Compound 6d, 6-((4-(4-Methylpiperazin-1-yl)phenyl)amino)quinoline-5,8-dione], for which the ROS production entry with HeLaS3 cells [1] and in the data set on KB-vin cells [2] was “increased dose-dependently” throughout. Besides, the mitochondrial membrane potential result in the data set on HeLaS3 cells [3] and in the data set with KB-vin cells [4] was “significantly decreased in a dose-dependent manner” in each case.
In the case of `O=C1C=C(NCCc2c[nH]c3ccccc23)C(=O)c2ncccc21` [Compound 7a, 7-((2-(1H-Indol-3-yl)ethyl)amino)quinoline-5,8-dione], the ROS production entry in the data set on HeLaS3 cells [1] and in the data set on KB-vin cells [2] was “increased dose-dependently” each time. For the same compound, the mitochondrial membrane potential result in the data set with HeLaS3 cells [3] and in the data set on KB-vin cells [4] was “significantly decreased in a dose-dependent manner” in each case. Besides, the “NQO1 activity after treatment” value at NQO1 [5] and at NQO1 [6] was “inhibited dose-dependently” in each case.
Take “6-((4-([1,4’ -Bipiperidin]-1’ -yl)phenyl)amino)quinoline-5,8-dione [Compound 6f]”: the IC50 (usually the concentration that inhibits the measured activity by half) in the data set on HeLaS3 cells [7] was found to be 5.16 µM.
For the compound `COC(=O)/C=C/c1cccc(CNC2=CC(=O)c3ncccc3C2=O)c1` [Compound 6h, (E)-Methyl 3-(3-(((5,8-dioxo-5,8-dihydroquinolin-6-yl)amino)methyl)phenyl)acrylate], the ROS production entry in the data set on HeLaS3 cells [1] and in the data set with KB-vin cells [2] was “increased dose-dependently” throughout. Also, the mitochondrial membrane potential entry in the data set on HeLaS3 cells [3] and with KB-vin cells [4] was “significantly decreased in a dose-dependent manner” each time. The “NQO1 activity after treatment” value at NQO1 [5] and at NQO1 [6] was “inhibited dose-dependently” throughout.
For the compound “7-((4-([1,4’ -Bipiperidin]-1’ -yl)phenyl)amino)quinoline-5,8-dione [Compound 7f]”, the IC50 in the data set on HeLaS3 cells [7] came out at 5.07 ± 0.1 µM.
In the case of `CN1CCN(c2ccc(NC3=CC(=O)c4cccnc4C3=O)cc2)CC1` [Compound 7d, 7-((4-(4-Methylpiperazin-1-yl)phenyl)amino)quinoline-5,8-dione], at NQO1 [8] (Lineweaver-Burk plots), the “mode of NQO1 inhibition” value is on record as “competitive inhibitors”. Besides, the “maximum rate (Vmax)” value on NQO1 [8] (remained the same as inhibitor concentration increased) was found to be 11.03 ± 1.5 nmol/mg protein/20s. Moreover, the ROS production entry with HeLaS3 cells [1] and in the data set on KB-vin cells [2] was “increased dose-dependently” throughout. Besides, the mitochondrial membrane potential entry in the data set on HeLaS3 cells [3] and with KB-vin cells [4] was “significantly decreased in a dose-dependent manner” each time. In [9], the “effect on survival of non-tumor EECs” value was “no significant effect”. For the same compound, the “effect on HeLaS3 cells, same treatment regimen” value with HeLaS3 cells [10] is “induced major HeLaS3 cell death”. In addition, the “cleavage of caspase-3” value in the data set on HeLaS3 cells [11] is given as “induced more cleavage of caspase-3 than the control group”. Moreover, in the data set with HeLaS3 cells [11] (dose-dependent), the “levels of anti-apoptotic Bcl-2 expression” value is given as “reduced”. Also, the “relative levels of pro-apoptotic Bax expression” value in the data set on HeLaS3 cells [11] (dose-dependent) is “dramatically increased”. Moreover, the “NQO1 activity after treatment” value on NQO1 [5] and at NQO1 [6] was “inhibited dose-dependently” each time. Moreover, the “cell viability of compound-treated cells on addition of DIC and NAc” value in the data set on HeLaS3 cells [12] and with KB-vin cells [13] was “significantly increased” each time.
